Experimental data as given in ChEMBL document CHEMBL1201862, “PubChem BioAssay data set” (2004).
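Test compounds were applied to cells in 96-well plates for 48 hours at 5 doses. Abbreviation: GI50, concentration required for 50% inhibition of growth.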 The source made the active and inactive calls. Cut-off read from the data, not from the text of the source: active = GI50 up to about 1.1 µM and inactive = higher.

Columns and labels:
Assay in all cases: DTP human tumour cell line panel, 48 h
[1] = tested on: UO-31
[2] = tested on: HCT-15
[3] = tested on: NCI-H23
[4] = tested on: 786-0
[5] = tested on: M14
[6] = tested on: SK-MEL-28
[7] = tested on: OVCAR-5
[8] = tested on: SF-295
[9] = tested on: HCT-116
[10] = tested on: KM12
[11] = tested on: OVCAR-3
[12] = tested on: COLO 205
[13] = tested on: Malme-3M
[14] = tested on: SNB-19
[15] = tested on: TK-10
[16] = tested on: SK-OV-3
[17] = tested on: NCI-H522
[18] = tested on: LOX IMVI

Row | Structure (SMILES) | GI50 [1] | GI50 [2] | GI50 [3] | GI50 [4] | GI50 [5] | GI50 [6] | GI50 [7] | GI50 [8] | GI50 [9] | GI50 [10] | GI50 [11] | GI50 [12] | GI50 [13] | GI50 [14] | GI50 [15] | GI50 [16] | GI50 [17] | GI50 [18]
1 | C/C(=N\NC(=O)CC(=O)N(C(=O)c1ccc(Cl)cc1)c1ccc(C)cc1)c1ccccc1O | 4.82 µM (inactive) | 4.88 µM | > 100 µM (inactive) | 13.4 µM (inactive) | 81.7 µM (inactive) | 61.8 µM (inactive) | > 100 µM (inactive) | 7.33 µM (inactive) | 62.2 µM (inactive) | 9.68 µM (inactive) | 14 µM (inactive) | 16.9 µM (inactive) | > 100 µM (inactive) | 59.4 µM (inactive) | 17.6 µM (inactive) | > 100 µM (inactive) | 36.6 µM (inactive) | 
2 | Cn1c(=O)c(C(=O)NC(=O)OCc2ccccc2)cn(CCSCCOC(=O)NCCCCCCNC(=O)OCCSCCn2cc(C(=O)NC(=O)OCc3ccccc3)c(=O)n(C)c2=O)c1=O | 74.6 µM (inactive) | > 100 µM | > 100 µM (inactive) | 83.9 µM (inactive) | > 100 µM (inactive) | > 100 µM (inactive) | > 100 µM (inactive) |  | > 100 µM (inactive) |  |  | > 100 µM (inactive) | > 100 µM (inactive) | 41.2 µM (inactive) | > 100 µM (inactive) |  | > 100 µM (inactive) | > 100 µM (inactive)
3 | O=S1(=O)CCCS(=O)(=O)C(c2ccccc2)=C1c1ccccc1 | > 100 µM (inactive) | 27.7 µM | 50.5 µM (inactive) | 66.4 µM (inactive) | 26.9 µM (inactive) | > 100 µM (inactive) | > 100 µM (inactive) | > 10 µM (inactive) | 30.5 µM (inactive) | 24.7 µM (inactive) | 36.6 µM (inactive) |  | 34.2 µM (inactive) |  | > 100 µM (inactive) | 44.2 µM (inactive) | 27.5 µM (inactive) | 33 µM (inactive)
4 | CC(=O)/C(=C\c1ccccc1O)C(=O)Nc1ccccc1C | 16 µM (inactive) | 14.1 µM | 17.7 µM (inactive) | 15.4 µM (inactive) | 17.5 µM (inactive) | 24.3 µM (inactive) | 21.2 µM (inactive) | 23.2 µM (inactive) | 24.4 µM (inactive) | 17.2 µM (inactive) | 25.7 µM (inactive) |  | 17.5 µM (inactive) | 20.7 µM (inactive) | > 10 µM (inactive) | 51.9 µM (inactive) | > 10 µM (inactive) | 14.3 µM (inactive)
5 | COc1cc(C(C)O)c[n+](CCc2c[nH]c3ccccc23)c1 (stereo unspecified) | > 100 µM (inactive) | > 100 µM | > 100 µM (inactive) | > 100 µM (inactive) | > 100 µM (inactive) |  |  | > 100 µM (inactive) | > 100 µM (inactive) | > 100 µM (inactive) | 66.5 µM (inactive) | 72.8 µM (inactive) | > 100 µM (inactive) | > 100 µM (inactive) | > 100 µM (inactive) |  | 83.9 µM (inactive) | > 100 µM (inactive)
6 | N#Cc1ccc(C2SCc3nc4ccccc4n32)cc1 (stereo unspecified) | 15.2 µM (inactive) | > 100 µM | 25.6 µM (inactive) | > 100 µM (inactive) | 54.2 µM (inactive) | 42.4 µM (inactive) |  | 74.3 µM (inactive) | 44.8 µM (inactive) | > 100 µM (inactive) | > 100 µM (inactive) | > 100 µM (inactive) | > 100 µM (inactive) | 81.7 µM (inactive) | 81.7 µM (inactive) | > 100 µM (inactive) | 12.3 µM (inactive) | 
7 | COc1ccc(/C=C2\C(=O)N(C(=O)c3ccc(NC(C)=O)cc3)N=C2C)cc1 | > 100 µM (inactive) | > 100 µM | > 100 µM (inactive) | > 100 µM (inactive) | > 100 µM (inactive) | > 100 µM (inactive) | > 100 µM (inactive) | > 100 µM (inactive) | > 100 µM (inactive) | > 100 µM (inactive) | > 100 µM (inactive) | > 100 µM (inactive) | > 100 µM (inactive) | > 100 µM (inactive) | > 100 µM (inactive) |  | > 100 µM (inactive) | > 100 µM (inactive)
8 | CC1=NN(C(=O)Cc2ccccc2)C(=O)/C1=C\c1cccc(O)c1 | > 100 µM (inactive) | > 100 µM | > 100 µM (inactive) | > 100 µM (inactive) | > 100 µM (inactive) | > 100 µM (inactive) | > 100 µM (inactive) | > 100 µM (inactive) | > 100 µM (inactive) | > 100 µM (inactive) | > 100 µM (inactive) | > 100 µM (inactive) | > 100 µM (inactive) | > 100 µM (inactive) | > 100 µM (inactive) |  | > 100 µM (inactive) | > 100 µM (inactive)
9 | O=C(NO)c1ccc([N+](=O)[O-])cc1 | 24.8 µM (inactive) | 64.3 µM | 36.6 µM (inactive) | > 100 µM (inactive) | 40.9 µM (inactive) | 23.4 µM (inactive) |  | 42.1 µM (inactive) |  | 64.9 µM (inactive) | 44.7 µM (inactive) | 31.1 µM (inactive) | 26.9 µM (inactive) | 46.2 µM (inactive) | 37.3 µM (inactive) | > 100 µM (inactive) | 21 µM (inactive) | 40.8 µM (inactive)
10 | Cc1ccc(N2C(=O)C(Cl)=C(Cl)C2=O)cc1 | 31.7 µM (inactive) | 19.2 µM | 20.7 µM (inactive) | 17.3 µM (inactive) | 19.2 µM (inactive) | 16.5 µM (inactive) | 18 µM (inactive) | 71.8 µM (inactive) | 17 µM (inactive) | 20.5 µM (inactive) | 16.9 µM (inactive) | 16.1 µM (inactive) | 18.7 µM (inactive) | > 100 µM (inactive) |  | 44 µM (inactive) | 13 µM (inactive) | 23.6 µM (inactive)
11 | COc1ccccc1-c1cc(O)c2cc3c(cc2n1)OCO3 | 65.2 µM (inactive) | 12.3 µM | 54.6 µM (inactive) | 31.9 µM (inactive) |  | > 100 µM (inactive) |  |  | 28.6 µM (inactive) |  |  | 17.2 µM (inactive) | 6.82 µM (inactive) | 45.3 µM (inactive) | > 100 µM (inactive) |  |  | 52.4 µM (inactive)
12 | CN(C)Cc1[nH]c2ccccc2c1C(=O)c1ccccc1 | 31.6 µM (inactive) | > 100 µM | > 100 µM (inactive) | > 100 µM (inactive) | > 100 µM (inactive) | > 100 µM (inactive) | > 100 µM (inactive) | > 100 µM (inactive) | > 100 µM (inactive) | > 100 µM (inactive) | > 100 µM (inactive) | > 100 µM (inactive) | > 100 µM (inactive) | > 100 µM (inactive) | > 100 µM (inactive) |  | > 100 µM (inactive) | 
13 | NC1=NN(c2ccccc2)C(=O)C1C(=O)C(=O)NC1C2CC3CC(C2)CC1C3 (stereo unspecified) | > 100 µM (inactive) | > 100 µM | > 100 µM (inactive) | > 100 µM (inactive) | > 100 µM (inactive) | > 100 µM (inactive) | > 100 µM (inactive) | > 100 µM (inactive) | > 100 µM (inactive) | > 100 µM (inactive) | > 100 µM (inactive) | > 100 µM (inactive) | > 100 µM (inactive) | > 100 µM (inactive) | > 100 µM (inactive) | 24.9 µM (inactive) |  | > 100 µM (inactive)
